Results as given in paper PMC6985722 (Antimicrobial Agents and Chemotherapy, 2020).
Like-named read-outs stand apart in the source and are kept apart here.

Tests used:
[1] = test system: RSV-B isolates; design: method as in ref 16 = [16]; 16. Cockerill GS , Bedernjak A , Brookes D , Dowey R , Harland R , Johnson SM , Mathews N , Paradowski M , Peeples M , Scott C , Steadman M , Taylor G , Thom M , Thomas E , Ward SE , Watterson D , You; conditions: n = 16 isolates; cited from earlier work
[2] = RSV human challenge study: plasma pharmacokinetics; format: in vivo; conditions: for half-life / Tmax / concentration at 12 h / Cmax / AUC(0-t): human; for concentration at 12 h: 12 hours post-dose, read-out: Mean Cmin (SD); for Cmax: read-out: Mean Cmax (SD); for AUC(0-t): read-out: Geometric mean (CV) AUC0–12h
Method: Twice-daily collection of nasal wash samples allowed measurement of viral load via RT-qPCR and quantitative culture. […] Subjects reported the occurrence and severity of symptoms three times daily using a 10-item subject symptom diary card as previously reported ([12]) (see Supplemental Methods). Throughout the quarantine period, used tissues were collected and weighed daily, and total nasal mucus weight was recorded. PK assessments were based on venous blood samples. Safety assessments included measurement of vital signs, standard 12-lead ECG recordings, spirometry, a complete physical examination, and a respiratory-directed physical examination. AEs were monitored daily, coded according to the Medical Dictionary for Regulatory Activities Version 20.0, and graded according to the National Cancer Institute Common Terminology Criteria for Adverse Events Version 4.0 (see Supplemental Methods for further details).
The safety analysis set comprised all subjects who received challenge virus; the PK analysis set comprised all subjects who received the challenge virus and provided at least one postdose PK result.
PK parameters were derived by noncompartmental analysis using Phoenix WinNonlin version 6.4.1. Statistical analyses were performed using SAS software version 9.4 or later. […]
Outcomes. Safety outcomes included the occurrence of AEs. PK outcomes included the maximum plasma concentration, the minimum plasma concentration, the time to maximum plasma concentration, and the area under the plasma concentration-time curve with a dosing interval, calculated by the linear trapezoidal rule.

[3] = test system: RSV-A Memphis-37b; test: RSV human challenge study: viral load in nasal wash by quantitative culture; format: in vivo
Method: Subjects were screened outside the RSV season for eligibility, including measurement of RSV-A Memphis-37b-specific neutralizing antibody titer, ≤90 days before virus challenge. Eligible subjects were admitted to the quarantine unit on day −2 or day −1 and were inoculated intranasally on day 0 with the challenge virus, RSV-A Memphis-37b (4 log10 PFU/ml, given as one 0.4-ml installation per naris), as previously described ([26]). Nasal wash sampling every 12 h for confirmation of RSV infection by qualitative integrated cycler PCR ([12], [19]) began on the morning of day 2. Treatment began 12 h (±1 h) after collection of a nasal wash sample confirming RSV infection or on the evening of day 5 if RSV infection remained unconfirmed by the morning of day 5.
The study comprised two consecutive cohorts. […] Subjects were discharged on day 12 if nasopharyngeal swab samples tested negative by RSV rapid antigen assay (QuickVue RSV test; Quidel, San Diego, CA, USA). If such tests were positive or if a subject remained symptomatic, quarantine was extended to allow further observation. All subjects were evaluated on day 28 (±3 days).
Twice-daily collection of nasal wash samples allowed measurement of viral load via RT-qPCR and quantitative culture. RT-qPCR results were reported as PFUe/ml when the standard curve included in each assay contained a known infectious amount (PFU) of RSV, as described previously ([30]). Subjects reported the occurrence and severity of symptoms three times daily using a 10-item subject symptom diary card as previously reported ([12]) (see Supplemental Methods). Throughout the quarantine period, used tissues were collected and weighed daily, and total nasal mucus weight was recorded. PK assessments were based on venous blood samples. Safety assessments included measurement of vital signs, standard 12-lead ECG recordings, spirometry, a complete physical examination, and a respiratory-directed physical examination. AEs were monitored daily, coded according to the Medical Dictionary for Regulatory Activities Version 20.0, and graded according to the National Cancer Institute Common Terminology Criteria for Adverse Events Version 4.0 (see Supplemental Methods for further details).
The primary efficacy endpoint was AUC for RSV viral load, as measured by RT-qPCR, in nasal wash samples taken twice daily from just before the first dose until discharge (day 12). Viral load data were provided as log10 PFUe/ml; AUC (log10 PFUe/ml · h) was calculated using the trapezoid rule. Secondary efficacy endpoints related to viral load were AUC of RSV viral load, as assessed by quantitative culture, and the following measures, which were each assessed using both RT-qPCR and quantitative culture: peak viral load, time to peak viral load, and time to <1 log10 (for RT-qPCR) or undetectable (for quantitative culture) viral load (considered to occur at the first confirmed undetectable assessment after which no further virus was detected). Secondary efficacy endpoints related to clinical symptoms included AUC total symptom score; peak total symptom score; time to peak total symptom score; and the total weight of nasal mucus produced. Other secondary outcomes were safety, PK, and sequence detection of viral variants (see Supplemental Methods).
The primary efficacy analysis population (the ITT-I analysis set) comprised all randomized subjects who received challenge virus and at least one dose of study drug and met the criterion for laboratory-confirmed RSV infection (presence of detectable RSV). Sensitivity analyses were based on a subset of the ITT-I population who had first detectable RSV infection prior to study drug administration (the ITT-A analysis set) and a fixed time period of 6.5 days (comprising data for all subjects for 6.5 days of evaluation after the first dose, regardless of the staggered commencement of dosing). […]

[4] = 200 mg, ITT-I, fixed time period of 6.5 days
[5] = 350 mg, ITT-A, fixed time period of 6.5 days
[6] = 350 mg, ITT-I, fixed time period of 6.5 days

Structure (SMILES): NCc1ccc2c(c1)nc(CN1C(=O)C3(CC3)c3ccc(F)cc31)n2CCCC(F)(F)F [RV521]
- IC50 [1]: 1 nM
- Time to steady-state plasma levels after the first dose ([2]; 200 mg and 350 mg): ≤ 24 h
- Subjects achieving target trough levels (3× protein-adjusted in vitro EC90) ([2]; 200 mg, after the first dose): 50%
- Subjects achieving target trough levels (3× protein-adjusted in vitro EC90) ([2]; 200 mg, after the second dose): 73%
- Subjects with trough levels in excess of the target (3× protein-adjusted in vitro EC90) ([2]; 350 mg, after the first dose): all subjects
- Increase of systemic exposure with dose ([2]; dose 1 and dose 10, 200 mg vs 350 mg): greater than dose-proportional
- half-life ([2]; in vivo, 200 mg and 350 mg, read-out: Elimination half-life (converted)): ~6 h
- Tmax ([2]; plasma, oral, 200 mg and 350 mg, postdose, read-out: Median time to maximum plasma concentration): 5 to 6 h
- concentration at 12 h ([2]; plasma, oral, 200 mg, dose 1): 22.6 ng/mL
- Cmax ([2]; plasma, oral, 200 mg, dose 1, plasma): 55.3 ng/mL
- AUC(0-t) ([2]; plasma, oral, 200 mg, dose 1): 255 ng·h/mL
- Tmax ([2]; plasma, oral, 200 mg, dose 1, read-out: Median Tmax): 5.04 h
- Cmax ([2]; plasma, oral, 200 mg, dose 10 (twice daily), plasma): 94.9 ng/mL
- concentration at 12 h ([2]; plasma, oral, 200 mg, dose 10): 39.4 ng/mL
- AUC(0-t) ([2]; plasma, oral, 200 mg, dose 10): 642 ng·h/mL
- Tmax ([2]; plasma, oral, 200 mg, dose 10, read-out: Median Tmax): 5.06 h
- concentration at 12 h ([2]; plasma, oral, 350 mg, dose 1): 80 ng/mL
- Cmax ([2]; plasma, oral, 350 mg, dose 1, plasma): 169 ng/mL
- AUC(0-t) ([2]; plasma, oral, 350 mg, dose 1): 953 ng·h/mL
- Tmax ([2]; plasma, oral, 350 mg, dose 1, read-out: Median Tmax): 6 h
- Cmax ([2]; plasma, oral, 350 mg, dose 10 (twice daily), plasma): 294 ng/mL
- concentration at 12 h ([2]; plasma, oral, 350 mg, dose 10): 151 ng/mL
- AUC(0-t) ([2]; plasma, oral, 350 mg, dose 10): 1900 ng·h/mL
- Tmax ([2]; plasma, oral, 350 mg, dose 10, read-out: Median Tmax): 5.05 h
- half-life ([2]; plasma, oral, 200 mg and 350 mg, read-out: Terminal half-life): 8.54 to 9.35 h
- AUC of viral load (quantitative culture), mean (SE) ([3]; 200 mg, ITT-A): 53.89 (15.47) hours x log10 PFU/mL
- AUC of viral load (quantitative culture), reduction in mean vs placebo ([3]; 200 mg, ITT-A): 71.47%
- Peak viral load (quantitative culture), mean (SE) ([3]; 200 mg, ITT-A): 1.82 (0.41) log10 PFU/mL
- Time to peak viral load (quantitative culture), mean (SE) ([3]; 200 mg, ITT-A): 3.53 (0.84) days
- Time to undetectable viral load (quantitative culture), median (Q1, Q3) ([3]; 200 mg, ITT-A): 3 (2, 3.5) days
- AUC of viral load (quantitative culture), mean (SE) ([3]; 200 mg, ITT-I): 50.98 (14.89) log10 PFU/ml · h
- AUC of viral load (quantitative culture), reduction in mean vs that of placebo ([3]; 200 mg, ITT-I): 68.60%
- Peak viral load (quantitative culture), mean (SE) ([3]; 200 mg, ITT-I): 1.72 (0.40) log10 PFU/ml
- Time to peak viral load (quantitative culture), mean (SE) ([3]; 200 mg, ITT-I): 3.69 (0.81) days
- Time to undetectable viral load (quantitative culture), median (Q1, Q3) ([3]; 200 mg, ITT-I): 3.0 (2.0, 3.5) (n = 11) days
- Mean viral load at time of peak viral load in placebo arm (day 2; quantitative culture), mean (SE) ([3]; 200 mg, ITT-I): 0.88 (0.30) log10 PFU/ml
- AUC of viral load (quantitative culture), mean (SE) [3, 4]: 50.98 (14.89) log10 PFU/mL x hours
- AUC of viral load (quantitative culture), reduction in mean vs placebo [3, 4]: 68.60%
- AUC of viral load (quantitative culture), mean (SE) ([3]; 350 mg, ITT-A): 43.76 (14.73) hours x log10 PFU/mL
- AUC of viral load (quantitative culture), reduction in mean vs placebo ([3]; 350 mg, ITT-A): 76.83%
- Peak viral load (quantitative culture), mean (SE) ([3]; 350 mg, ITT-A): 1.81 (0.44) log10 PFU/mL
- Time to peak viral load (quantitative culture), mean (SE) ([3]; 350 mg, ITT-A): 3.47 (0.87) days
- Time to undetectable viral load (quantitative culture), median (Q1, Q3) ([3]; 350 mg, ITT-A): 2.5 (2, 2.5) days
- AUC of viral load (quantitative culture), mean (SE) [3, 5]: 43.76 (14.73) log10 PFU/mL x hours
- AUC of viral load (quantitative culture), reduction in mean vs placebo [3, 5]: 76.83%
- AUC of viral load (quantitative culture), mean (SE) ([3]; 350 mg, ITT-I): 38.29 (13.36) log10 PFU/ml · h
- AUC of viral load (quantitative culture), reduction in mean vs that of placebo ([3]; 350 mg, ITT-I): 76.42%
- Peak viral load (quantitative culture), mean (SE) ([3]; 350 mg, ITT-I): 1.58 (0.41) log10 PFU/ml
- Time to peak viral load (quantitative culture), mean (SE) ([3]; 350 mg, ITT-I): 3.85 (0.80) days
- Time to undetectable viral load (quantitative culture), median (Q1, Q3) ([3]; 350 mg, ITT-I): 2.5 (2.0, 2.5) (n = 9) days
- Mean viral load at time of peak viral load in placebo arm (day 2; quantitative culture), mean (SE) ([3]; 350 mg, ITT-I): 0.71 (0.32) log10 PFU/ml
- AUC of viral load (quantitative culture), mean (SE) [3, 6]: 38.29 (13.36) log10 PFU/mL x hours
- AUC of viral load (quantitative culture), reduction in mean vs placebo [3, 6]: 76.42%
